Test results published in US12194039B2, “Methods of treating heart failure by administering omecamtiv mecarbil” (Cytokinetics, Inc., priority 2020, dated 2025).
Values joined by “and” are separate entries in the source; they are usually repeats but may differ in a detail not shown here. Equal values may be shown once. “Also recorded” adds a separate entry of the source. Read-outs that look alike come from different tables or passages of the source.

Legend:
[1] = test system: patients with HFrEF by baseline NT-proBNP (no AF/F and all randomized); conditions: for 1° Outcome (time to HF hospitalization or CV death), HR / All-cause death, HR / Hospitalization for HF, HR / NT-proBNP change from baseline to 24 weeks, Ratio: OM vs placebo
Experimental: Here we report the effect of omecamtiv mecarbil according to baseline NT-proBNP level in patients without AF/F and in the overall population. In addition, we describe the effect of omecamtiv mecarbil using NT-proBNP as a continuous as well as a categorical measure and describe the effect of omecamtiv mecarbil on NT-proBNP level.
NT-proBNP was measured at baseline and at 2, 6, 24, 48 and 96 weeks after randomization. Plasma NT-proBNP was measured in a central laboratory (Q Squared Solutions) using the Roche Elecsys NT-proBNP two-site electrochemiluminescence immunoassay (analytical range 50-35000 pg/m L).
Baseline characteristics were summarized as frequencies with percentages, means with standard deviation (SD), or medians with interquartile ranges. Differences in baseline characteristics were tested using the Cochrane-Armitage trend test for categorical variables and the analysis of variance test for continuous variables. The difference between treatment groups in NT-proBNP at the time points after randomization in surviving patients was analyzed using an analysis of covariance model, with treatment-group assignment as a fixed-effect factor and baseline NT-proBNP as a covariate. […] Time-to-event data were evaluated with Kaplan-Meier estimates and Cox proportional-hazards models with baseline hazards stratified by randomization setting and region and with treatment group and baseline eGFR as covariates. The safety analyses were performed in patients who underwent randomization and received at least one dose of omecamtiv mecarbil or placebo. […] A P-value of 0.05 was considered statistically significant.

[2] = target: T1, BCRP (Homo sapiens, UniProt Q9UNQ0); test: Transporter substrate assessment; type: in vitro ADME; conditions: result in words
T1 sequence (Q9UNQ0 1-655): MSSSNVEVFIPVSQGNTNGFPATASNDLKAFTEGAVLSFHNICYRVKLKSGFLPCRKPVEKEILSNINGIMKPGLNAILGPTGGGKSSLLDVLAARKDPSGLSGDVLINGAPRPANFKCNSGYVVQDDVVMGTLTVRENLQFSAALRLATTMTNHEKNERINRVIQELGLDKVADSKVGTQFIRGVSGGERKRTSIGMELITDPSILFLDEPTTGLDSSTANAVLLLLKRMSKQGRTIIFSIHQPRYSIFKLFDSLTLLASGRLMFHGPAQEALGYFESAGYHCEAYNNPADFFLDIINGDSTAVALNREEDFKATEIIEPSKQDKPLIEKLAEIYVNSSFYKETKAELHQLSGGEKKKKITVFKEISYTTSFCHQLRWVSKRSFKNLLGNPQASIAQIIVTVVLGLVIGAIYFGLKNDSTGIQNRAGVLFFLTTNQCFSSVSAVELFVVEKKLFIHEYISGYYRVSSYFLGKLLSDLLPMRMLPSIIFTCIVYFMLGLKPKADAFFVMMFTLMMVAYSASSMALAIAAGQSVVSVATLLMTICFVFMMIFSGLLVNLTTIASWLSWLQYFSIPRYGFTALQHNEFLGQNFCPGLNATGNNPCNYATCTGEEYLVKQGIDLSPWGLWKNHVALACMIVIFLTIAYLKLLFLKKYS

[3] = Pharmacokinetics in patients with hepatic impairment; type: in vivo, human; conditions: single dose 25 mg; mild (Child-Pugh A) or moderate (Child-Pugh B) hepatic impairment; result in words
Experimental: The pharmacokinetics of a single dose of OM 25 mg were evaluated in patients with mild (Child-Pugh A) or moderate (Child-Pugh B) hepatic impairment. The pharmacokinetics (Cmax and AUC) of OM in patients with mild or moderate hepatic impairment were similar to those in patients with normal hepatic function.

[4] = test system: patients with heart failure with reduced ejection fraction
Description: The primary outcome was a composite of the time to a heart failure event or cardiovascular death, whichever occurred first. A heart failure event was defined as an urgent clinic visit, emergency department visit or hospitalization for subjectively and objectively worsening heart failure leading to treatment intensification beyond changed oral diuretic therapy. Secondary outcomes were: the time to cardiovascular death; change in KCCQ Total Symptom Score (TSS) from baseline to Week 24 (scale from 0 to 100; higher score indicates fewer symptoms); time to first heart failure hospitalization; and time to all-cause death. All deaths, HF events, major cardiac ischemic events (myocardial infarction/unstable angina hospitalization, and coronary revascularization), and strokes were adjudicated by a blinded external Clinical Events Committee (Duke Clinical Research Institute) using standardized definitions.

[5] = target: T1, BCRP; test: Clinical studies and physiologically based pharmacokinetic modeling of OM as perpetrator; type: in vivo; parameters: from tissue; conditions: clinical studies and PBPK modeling; result in words
Description: OM may be administered with drugs that are substrates of CYP3A4, CYP2C8, P-gp or BCRP.

[6] = All patients, baseline NT-proBNP >median
[7] = All patients, baseline NT-proBNP >median, OM n = 2034
[8] = All patients, baseline NT-proBNP ≤median
[9] = All patients, baseline NT-proBNP ≤median, OM n = 2073
[10] = No AF/F, baseline NT-proBNP >median
[11] = No AF/F, baseline NT-proBNP >median, OM n = 1489
[12] = No AF/F, baseline NT-proBNP ≤median
[13] = No AF/F, baseline NT-proBNP ≤median, OM n = 1476
[14] = patients without AF/F, baseline NT-proBNP>median

COC(=O)N1CCN(Cc2cccc(NC(=O)Nc3ccc(C)nc3)c2F)CC1 [omecamtiv mecarbil]
NT-proBNP at 24 wks [1, 6]: 2809 pg/mL
1° Outcome (time to HF hospitalization or CV death), % [1, 7]: (48) %
1° Outcome (time to HF hospitalization or CV death), Rate [1, 7]: 36.52 per 100 person-years
All-cause Death (%) [1, 7]: (36) %
All-cause Death Rate [1, 7]: 21.87 per 100 person-years
Hospitalization for HF, % [1, 7]: (37) %
Hospitalization for HF, Rate [1, 7]: 27.93 per 100 person-years
1° Outcome (time to HF hospitalization or CV death), HR [1, 6]: 0.88
All-cause death, HR [1, 6]: 0.97
Hospitalization for HF, HR [1, 6]: 0.88
NT-proBNP change from baseline to 24 weeks, Ratio [1, 6]: 0.84
NT-proBNP at 24 wks [1, 8]: 772 pg/mL
1° Outcome (time to HF hospitalization or CV death), % [1, 9]: (26) %
1° Outcome (time to HF hospitalization or CV death), Rate [1, 9]: 15.00 per 100 person-years
All-cause Death (%) [1, 9]: (16) %
All-cause Death Rate [1, 9]: 8.11 per 100 person-years
Hospitalization for HF, % [1, 9]: (20) %
Hospitalization for HF, Rate [1, 9]: 11.84 per 100 person-years
1° Outcome (time to HF hospitalization or CV death), HR [1, 8]: 1.02
All-cause death, HR [1, 8]: 1.10
Hospitalization for HF, HR [1, 8]: 1.04
NT-proBNP change from baseline to 24 weeks, Ratio [1, 8]: 0.95
NT-proBNP threshold at which the favorable effect emerged ([1]; NT-proBNP as a continuous measure, patients without AF/F): around 2,000 pg/mL
NT-proBNP at 24 wks [1, 10]: 2302 pg/mL
1° Outcome (time to HF hospitalization or CV death), % [1, 11]: (44) %
1° Outcome (time to HF hospitalization or CV death), Rate [1, 11]: 31.30 per 100 person-years
All-cause Death (%) [1, 11]: (32) %
All-cause Death Rate [1, 11]: 18.67 per 100 person-years
Hospitalization for HF, % [1, 11]: (32) %
Hospitalization for HF, Rate [1, 11]: 23.26 per 100 person-years
1° Outcome (time to HF hospitalization or CV death), HR [1, 10]: 0.81
All-cause death, HR [1, 10]: 0.86
Hospitalization for HF, HR [1, 10]: 0.79
NT-proBNP change from baseline to 24 weeks, Ratio [1, 10]: 0.83
NT-proBNP at 24 wks [1, 12]: 614 pg/mL
1° Outcome (time to HF hospitalization or CV death), % [1, 13]: (22) %
1° Outcome (time to HF hospitalization or CV death), Rate [1, 13]: 12.42 per 100 person-years
All-cause Death (%) [1, 13]: (13) %
All-cause Death Rate [1, 13]: 6.74 per 100 person-years
Hospitalization for HF, % [1, 13]: (17) %
Hospitalization for HF, Rate [1, 13]: 9.62 per 100 person-years
1° Outcome (time to HF hospitalization or CV death), HR [1, 12]: 0.94
All-cause death, HR [1, 12]: 0.96
Hospitalization for HF, HR [1, 12]: 0.97
NT-proBNP change from baseline to 24 weeks, Ratio [1, 12]: 0.95
Effect on NT-proBNP by baseline NT-proBNP ([1]; baseline to 24 weeks, result in words): reduced NT-proBNP only in patients with a baseline value NT-proBNP greater than the median
Adverse events compared to placebo ([1]; in vivo): no strong or consistent evidence that any adverse event was more common
Effect on systolic blood pressure ([1]; in vivo): did not have a significant effect
Effect on troponin I ([1]; in vivo): increased troponin I, significantly
HR (heart rate) at 24 wks ([1]; in vivo): 70 (11) bpm and 69 bpm and 70 (12) bpm and 70 bpm
Major cardiac ischemic events, RR ([1]; in vivo): 1.16 (0.86, 1.56) and 1.10 (0.85, 1.43) and 1.08 (0.80, 1.47) and 0.99 (0.74, 1.33)
Major cardiac ischemic events, number of patients ([1]; in vivo): 86 (5.8) and 114 (5.5) and 83 (5.6) and 85 (4.2)
Major cardiac ischemic events, value in parentheses ([1]; in vivo): 86 (5.8) and 114 (5.5) and 83 (5.6) and 85 (4.2)
Reduction of heart rate ([1]; in vivo): 1-2 beats per minute
SBP at 24 wks ([1]; in vivo): 120 mmHg and 116 mmHg
Stroke, RR ([1]; in vivo): 0.83 (0.49, 1.39) and 0.68 (0.44, 1.03) and 0.73 (0.45, 1.17) and 0.69 (0.46, 1.03)
Stroke, number of patients ([1]; in vivo): 25 (1.7) and 36 (1.7) and 29 (2.0) and 40 (2.0)
Stroke, value in parentheses ([1]; in vivo): 25 (1.7) and 36 (1.7) and 29 (2.0) and 40 (2.0)
Torsade/QT prolongation, RR ([1]; in vivo): 0.84 (0.58, 1.23) and 0.88 (0.65, 1.19) and 1.01 (0.73, 1.39) and 0.94 (0.72, 1.23)
Troponin I change from baseline to 24 weeks, Ratio ([1]; in vivo): 1.28 and 1.25 and 1.23
Ventricular tachyarrhythmia leading to treatment, RR ([1]; in vivo): 0.67 (0.42, 1.07) and 0.86 (0.59, 1.25) and 1.15 (0.77, 1.72) and 1.02 (0.73, 1.42)
Ventricular tachyarrhythmia, RR ([1]; in vivo): 0.82 (0.62, 1.09) and 0.89 (0.71, 1.12) and 1.05 (0.82, 1.35) and 1.03 (0.83, 1.27)
Ventricular tachyarrhythmia, number of patients ([1]; in vivo): 84 (6.7) and 130 (7.3) and 115 (8.6) and 160 (8.7)
Ventricular tachyarrhythmia, value in parentheses ([1]; in vivo): 84 (6.7) and 130 (7.3) and 115 (8.6) and 160 (8.7)
Primary endpoint, hazard ratio ([1]; overall population, NT-proBNP less than or equal to the median): 1.01
Primary endpoint, hazard ratio ([1]; overall population, NT-proBNP>median): 0.88
Primary outcome event rate compared with the placebo group ([1]; patients with AF/F at baseline, result in words): higher event rate
Proportional reduction in NT-proBNP compared with placebo ([1]; patients with NT-proBNP greater than the median at baseline): approximately 17%
Primary endpoint, hazard ratio ([1]; patients without AF/F, NT-proBNP greater than the median): 0.81
Primary endpoint, hazard ratio ([1]; patients without AF/F, NT-proBNP less than or equal to the median): 0.94
Benefit on primary endpoint ([1]; patients without AF/F, NT-proBNP≤median, result in words): no benefit
Relative risk reduction in cardiovascular mortality [1, 14]: 13%
Relative risk reduction in heart failure hospitalization [1, 14]: 21%
Relative risk reduction in the primary endpoint [1, 14]: 18%
Treatment efficacy / benefit by baseline NT-proBNP level ([1]; result in words): higher treatment efficacy; also recorded: larger in patients with higher baseline NT-proBNP levels
Substrate of BCRP [2]: substrate
Pharmacokinetics (Cmax and AUC) versus normal hepatic function [3]: similar
Reduction in fatal stroke ([4]; all patients randomized): 42%
Reduction in the risk of first fatal or non-fatal stroke ([4]; all patients randomized): 35%
Adjudicated type of first stroke event: Hemorrhagic, % ([4]; in vivo): 0.1%
Adjudicated type of first stroke event: Ischemic (Non-hemorrhagic), % ([4]; in vivo): 1.6%
Adjudicated type of first stroke event: Undetermined, % ([4]; in vivo): 0.1%
Adjudicated type of first stroke event: Ischemic with hemorrhagic transformation, % ([4]; n = 4110): 0.1%
New onset atrial fibrillation/flutter, hazard ratio ([4]; no AF/F at screening): 0.70
New onset atrial fibrillation/flutter, hazard ratio ([4]; no history of AF/F): 0.60
Non-fatal and fatal stroke, hazard ratio ([4]; no history of atrial fibrillation): 0.81
Non-fatal and fatal stroke, hazard ratio ([4]; no history of stroke): 0.78
Primary endpoint, hazard ratio ([4]; patients with a history of stroke, vs placebo): 0.86
Primary endpoint, hazard ratio ([4]; patients with no stroke, vs placebo): 0.93
Time to first stroke event ([4]; result in words): significantly reduced
Fatal stroke, hazard ratio ([4]; vs placebo): 0.56
Non-fatal and fatal stroke, hazard ratio ([4]; with history of atrial fibrillation): 0.49
Non-fatal and fatal stroke, hazard ratio ([4]; with history of stroke): 0.23
Inhibition of BCRP [5]: weak inhibitor
